Source: PMC12023841, “Unlocking the Gates: A Novel Diagnostic Molecule for Quantifying Efflux Levels in Gram‐Positive Bacteria” (Advanced Healthcare Materials, 2025)
Like-named read-outs stand apart in the source and are kept apart here.

What was measured:
S. epidermidis strains [1] = test system: S. epidermidis strains; set-up: method as in earlier work; conditions: ref [5], cited from earlier work
S. aureus strains [2] = type: cell-based
S. aureus strains [3] = conditions: cited from earlier work
S. epidermidis strains [4] = type: cell-based
[5] = Precipitation of reserpine in the presence of 5a4; type: physicochemical; conditions: text printed in Figure 7C
NorA efflux pump = NorA efflux pump (Staphylococcus aureus, UniProt P0A0J7); type: cell-based, S. aureus; conditions: 5a4 1 µg mL^−1
Chain of NorA efflux pump (P0A0J7 whole entry): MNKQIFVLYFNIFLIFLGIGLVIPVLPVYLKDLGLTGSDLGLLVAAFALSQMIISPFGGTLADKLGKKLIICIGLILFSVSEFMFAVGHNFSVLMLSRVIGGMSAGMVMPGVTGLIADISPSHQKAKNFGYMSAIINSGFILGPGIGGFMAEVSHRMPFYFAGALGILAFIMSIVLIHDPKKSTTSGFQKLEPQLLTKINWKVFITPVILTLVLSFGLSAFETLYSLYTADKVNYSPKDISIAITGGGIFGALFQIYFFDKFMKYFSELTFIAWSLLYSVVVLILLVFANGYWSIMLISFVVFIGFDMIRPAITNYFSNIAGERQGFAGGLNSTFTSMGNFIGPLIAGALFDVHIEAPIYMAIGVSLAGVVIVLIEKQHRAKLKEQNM

## COc1c(N2C[C@@H]3CCCN[C@@H]3C2)c(F)cc2c(=O)c(C(=O)O)cn(C3CC3)c12 [MXF, Moxifloxacin]
S. epidermidis strains [1]; strain ATCC12228
  Susceptibility profile: S
S. epidermidis strains [1]; strain ATCC12228_EtBr
  Susceptibility profile: R
S. aureus strains [2]
  Susceptibility profile: R and S
S. aureus strains [2]; […]
  Susceptibility profile: S
S. aureus strains [2]; strain BIOS-H1
  Susceptibility profile: S
S. aureus strains [2]; strain BIOS-H2
  Susceptibility profile: S
S. aureus strains [2]; strain BIOS-H3
  Susceptibility profile: S
S. aureus strains [2]; strain BIOS-H5
  Susceptibility profile: S
S. aureus strains [2]; strain BIOS-H6
  Susceptibility profile: S
S. aureus strains [2]; strain BIOS-H12
  Susceptibility profile: S
S. aureus strains [2]; strain BIOS-H13
  Susceptibility profile: S
S. aureus strains [2]; strain BIOS-H17
  Susceptibility profile: S
S. aureus strains [2]; strain BIOS-H20
  Susceptibility profile: S
S. aureus strains [2]; strain BIOS-H21
  Susceptibility profile: S
S. aureus strains [2]; strain BIOS-H22
  Susceptibility profile: S
S. aureus strains [2]; strain BIOS-H25
  Susceptibility profile: S
S. aureus strains [2]; strain BIOS-H28
  Susceptibility profile: S
S. aureus strains [2]; strain BIOS-H29
  Susceptibility profile: S
S. aureus strains [2]; strain BIOS-H30
  Susceptibility profile: S
S. aureus strains [2]; strain BIOS-H32
  Susceptibility profile: S
S. aureus strains [2]; strain BIOS-V21
  Susceptibility profile: S
S. aureus strains [2]; strain BIOS-V31
  Susceptibility profile: S
S. aureus strains [2]; strain BIOS-V60
  Susceptibility profile: S
S. aureus strains [2]; strain BIOS-V61
  Susceptibility profile: S
S. aureus strains [2]; strain BIOS-V62
  Susceptibility profile: S
S. aureus strains [2]; strain BIOS-V74
  Susceptibility profile: S
S. aureus strains [2]; strain BIOS-V75
  Susceptibility profile: S
S. aureus strains [2]; strain BIOS-V85
  Susceptibility profile: S
S. aureus strains [2]; strain BIOS-V118
  Susceptibility profile: S
S. aureus strains [2]; strain BIOS-V128
  Susceptibility profile: S
S. aureus strains [2]; strain BIOS-V147
  Susceptibility profile: S
S. aureus strains [2]; strain BIOS-V151
  Susceptibility profile: S
S. aureus strains [2]; strain BIOS-V156
  Susceptibility profile: S
S. aureus strains [2]; strain BIOS-V157
  Susceptibility profile: S
S. aureus strains [2]; strain BIOS-V158
  Susceptibility profile: S
S. aureus strains [2]; strain BIOS-V168
  Susceptibility profile: S
S. aureus strains [2]; strain BIOS-V172
  Susceptibility profile: S
S. aureus strains [2]; strain BIOS-V178
  Susceptibility profile: S
S. aureus strains [2]; strain BIOS-V203
  Susceptibility profile: S
S. aureus strains [2]; strain BIOS-V245
  Susceptibility profile: S
S. aureus strains [2]; strain BIOS-V250
  Susceptibility profile: S
S. aureus strains [2]; strain BIOS-V257
  Susceptibility profile: S
S. aureus strains [2]; strain BIOS-V279
  Susceptibility profile: S
S. aureus strains [2]; strain BIOS-V295
  Susceptibility profile: S
S. aureus strains [3]; strain ATCC25923, ref [4]
  Susceptibility profile: S
S. aureus strains [3]; strain SA-1199, ref [2]
  Susceptibility profile: S
S. aureus strains [3]; strain SA-1199B, ref [2]
  Susceptibility profile: S
S. aureus strains [3]; strain SA-K1712, ref [3]
  Susceptibility profile: S
S. aureus strains [3]; strain SA-K1748, ref [3]
  Susceptibility profile: R
S. aureus strains [3]; strain SA-K1758, ref [2]
  Susceptibility profile: S
S. aureus strains [3]; strain SA-K2068, ref [3]
  Susceptibility profile: R
S. epidermidis strains [4]
  Susceptibility profile: R
S. epidermidis strains [4]; strain BIOS-V24
  Susceptibility profile: S
S. epidermidis strains [4]; strain BIOS-V282
  Susceptibility profile: S

## COC(=O)[C@H]1[C@H]2C[C@@H]3c4[nH]c5cc(OC)ccc5c4CCN3C[C@H]2C[C@@H](OC(=O)c2cc(OC)c(OC)c(OC)c2)[C@@H]1OC [reserpine]
[5]
  Precipitation of reserpine (concentration): 20 to 30 µg/mL
NorA efflux pump; SA‐1199B
  change of 5a4 fluorescent intensity with reserpine: drastic increase
NorA efflux pump; SA‐1199 and SA‐1199B
  reserpine concentration giving significant increase (p < 0.01) in 5a4 fluorescence intensity versus untreated cells: ≥ 10 µg/mL
NorA efflux pump; SA‐K1758 (norA‐deficient)
  change of 5a4 fluorescent intensity with reserpine: no discernible change
